Reference: patent US20230132982A1, “USE OF PYRIDO[1,2-A]PYRIMIDINONE COMPOUND IN TREATING LYMPHOMA” (priority 2020, published 2023)

Legend:
Assay type in all cases: in vivo, human
[1] = system: Chronic lymphocytic leukemia/small lymphocytic lymphoma; assay: Clinical trial in small lymphocytic lymphoma or chronic lymphocytic leukemia (Example 6); details: 20 mg orally once daily, 28-day cycle
Experimental: (§1) Method of administration: orally administered once daily, 20 mg each time, with 28 consecutive days of administration as one cycle. Drug: tablet of the compound of formula I, 5 mg or 20 mg. […] The efficacy was evaluated with reference to IWCLL2008 evaluation criteria and the evaluation criteria revised by the Lugano conference, 2014 edition. Primary evaluation indexes of efficacy: objective response rate (ORR), i.e., (CR+PR cases)/total cases, including cases of complete response (CR) and partial response (PR). Secondary evaluation indexes of efficacy: progression-free survival (PFS), overall survival (OS), disease control rate (DCR) and duration of response (DOR).

[2] = system: relapsed/refractory diffuse large B-cell lymphoma (DLBCL); assay: Clinical trial in relapsed/refractory diffuse large B-cell lymphoma (Example 5); details: 20 mg orally once daily, 21-day cycle
Experimental: as §1, with “21” for “28”, “according” for “with reference”, “the revised” for “IWCLL2008”, “of” for “and the evaluation criteria revised by”

[3] = system: relapsed/refractory mantle cell lymphoma; assay: Clinical trial in relapsed/refractory mantle cell lymphoma (Example 3)
Experimental: as §1, with “according” for “with reference”, “the revised” for “IWCLL2008”, “of” for “and the evaluation criteria revised by”

[4] = system: relapsed or refractory FL; assay: Clinical trial in relapsed or refractory follicular lymphoma (Example 4)
Experimental: as §1, with “according” for “with reference”, “the revised” for “IWCLL2008”, “of” for “and the evaluation criteria revised by”

[5] = system: relapsed or refractory lymphoma; assay: Clinical trial of tablets of the compound of formula I in relapsed or refractory lymphoma (Example 2); parameters: key to Best efficacy: “Small SD” means that at the time of efficacy evaluation, a lesion shrinks in size compared with a baseline level, but does not meet the criteria for PR
Experimental: Drug: tablet of the compound of formula I, 1 mg or 5 mg. 2.2 Enrollment Criteria • 1) Unambiguously diagnosed as relapsed or refractory lymphoma by pathology and/or cytology; • 2) Has at least one measurable target lesion other than brain lesions confirmed by imaging in screening phase (evaluated according to the evaluation criteria revised by the Lugano conference, 2014 edition); • 3) Aged 18-75 years; • 4) ECOG (PS) score ≤1; • 5) Expected survival time ≥3 months; • 6) Main organ functions in the screening phase meet the following criteria: Criteria for blood routine examination (no growth factor used or no blood transfusion conducted within 7 days): • Absolute value of neutrophil count (ANC)≥1.5×10^9/L; • Platelet (PLT)≥75×10^9/L; hemoglobin (Hb)≥90 g/L; Criteria for blood biochemical examination: • Alanine transaminase (ALT) and aspartate transferase (AST)≤1.5×ULN (for patients with tumor liver metastasis, ≤3×ULN); • Glycosylated hemoglobin (HbA1c)≤8.5%; • Lipase≤1.5×ULN; • Serum total bilirubin≤1.5×ULN; • Serum creatinine (Cr)≤1.5×ULN; • 7) Doppler ultrasound evaluation: left ventricular ejection fraction (LVEF)≥lower limit of normal (50%); • 8) Female subjects should agree to take contraceptive measures (such as intrauterine devices [IUD], contraceptives or condoms) during the study and for 6 months after the study; serum or urine pregnancy test results should be negative within 7 days before enrollment, and the subjects must not be breastfeeding; male subjects should agree to take contraceptive measures during the study and for 6 months after the study; and • 9) Voluntary participation, written informed consent and good compliance. The efficacy was evaluated according to the revised evaluation criteria of the Lugano conference, 2014 edition. Primary evaluation indexes of efficacy: objective response rate (ORR), i.e., (CR+PR cases)/total cases, including cases of complete response (CR) and partial response (PR). Secondary evaluation indexes of efficacy: progression-free survival (PFS), overall survival (OS), disease control rate (DCR) and duration of response (DOR).

[6] = 20 mg QD dose group, 20 patients
[7] = 22 lymphoma patients enrolled, 18 evaluable for efficacy
[8] = Tumor type Lymphoma, 43 patients
[9] = overall conclusion of the trial
[10] = patient R1009, DLBCL, 10 mg/qd, administration cycle C7D28
[11] = patient R1018, FL, 20 mg/bid, administration cycle C2D28
[12] = patient R2008, FL, 10 mg/bid, administration cycle C2D3

## COc1ncc(-c2ccc3ncc(OCCN(C)C)c(=O)n3c2)cc1NS(=O)(=O)c1ccc(F)cc1Cl [compound of formula I]
[1]
  safety in treatment: good safety
  treatment effect on small lymphocytic lymphoma or chronic lymphocytic leukemia: good treatment effect
[2]
  safety in treatment: good safety
  therapeutic effect on diffuse large B-cell lymphoma: good therapeutic effect
[3]; 20 mg orally once daily
  safety in treatment: good safety
  therapeutic effect on mantle cell lymphoma: good therapeutic effect
[3]; 21 patients with mantle cell lymphoma, 20 mg orally once daily (2 cases)
  CR: 9.5%
[3]; 21 patients with mantle cell lymphoma, 20 mg orally once daily (16 cases)
  ORR: 76%
[3]; of the 7 patients previously treated with a BTK inhibitor
  patients reached ORR: Five
[4]; 20 mg orally once daily
  safety in treatment: good safety
  therapeutic effect on follicular lymphoma: good therapeutic effect
[4]; 20 patients with follicular lymphoma, 20 mg orally once daily (2 cases)
  CR: 10.0%
[4]; 20 patients with follicular lymphoma, 20 mg orally once daily (14 cases)
  ORR: 70%
[5]; 10 mg/qd and higher-dose group (11/15), 22 patients enrolled
  ORR: 73%
[5]; [6]
  adverse event, a grade 3 hyperglycemia: 1 case
  overall safety and tolerance: good overall safety and tolerance
[5]; 20 mg/qd group (4/4), 22 patients enrolled
  ORR: 100%
[5]; [7]
  patients achieved CR (best efficacy): 2 patients
  patients achieved PR (best efficacy): 9 patients
[5]; 35 lymphoma patients enrolled, 31 evaluated for efficacy (22/31)
  ORR: 71%
[5]; 35 lymphoma patients enrolled, controlled and returned to baseline by withdrawal of drug or symptom-oriented treatment
  major grade 3 adverse event and dose-limiting toxicity (DLT) associated with study drugs: hyperglycemia
[5]; 50 lymphoma patients enrolled, 43 evaluated for efficacy (28/43)
  ORR: 65%
[5]; Tumor type CLL, 2 patients
  ORR, n (%): 2 (100%) n (%)
[5]; Tumor type DLBCL, 8 patients
  CR, n (%): 2 (25.0%) n (%)
  ORR, n (%): 4 (50.0%) n (%)
[5]; Tumor type FL, 20 patients
  CR, n (%): 2 (10.0%) n (%)
  ORR, n (%): 15 (75%) n (%)
[5]; [8]
  CR, n (%): 4 (9.3%) n (%)
  ORR, n (%): 28 (65%) n (%)
[5]; Tumor type MCL, 5 patients
  ORR, n (%): 5 (100%) n (%)
[5]; Tumor type NHL, 41 patients
  CR, n (%): 4 (9.8%) n (%)
  ORR, n (%): 28 (68%) n (%)
[5]; all the two follicular lymphoma patients in the 20 mg/qd group
  Best efficacy: achieved PR
[5]; all the two mantle cell lymphoma patients, relapsed or refractory after BTK inhibitor treatment
  Best efficacy: achieved PR
[5]; follicular lymphoma (FL), 10 mg/qd and higher-dose group (6/8)
  ORR: 75%
[5]; [9]
  safety: good safety
  therapeutic effect on lymphoma: good therapeutic effect
[5]; patient R1006, FL, 10 mg/qd, administration cycle C5D28
  Change in lesion: −84.0%
[5]; [10]
  Best efficacy: Small SD
  Change in lesion: −37.5%
[5]; [11]
  Best efficacy: Small SD
  Change in lesion: −33.0%
[5]; patient R2006, DLBCL, 10 mg/qd, administration cycle C3D28
  Change in lesion: −100.0%
[5]; [12]
  Best efficacy: Small SD
  Change in lesion: −42.0%
[5]; patient R2009, MCL, 10 mg/bid, administration cycle C3D28
  Change in lesion: −71.0%
[5]; patient R2011, FL, 20 mg/bid, administration cycle C1D14
  Change in lesion: −94.0%
